The results in this text go back to patent publication US20140010876A1, “PHARMACEUTICAL ADMINISTRATION FORMS COMPRISING 5-CHLORO-N-(METHYL)-2-THIOPHENECARBOXAMIDE” (BAYER PHARMA AKTIENGESELLSCHAFT, priority 2012, published 2014).

This data set in a line: solubility of the active compound (I) in water. It is filed as physicochemical. Here is the method:
During the development of formulations, the physicochemical characteristics have to be taken into account in combination with the particular biological properties of the active compound (I). The physicochemical characteristics include, for example, the poor solubility of the active compound (I) in water (about 7 mg/l). The particular biological properties of the active compound (I) are a food-dependent bioavailability (the “food effect”) which, in the case of rapid-release tablet formulations, is noticeable at dosages from about 15 mg, and a limited absorption from the lower sections of the intestine. As a consequence, the desired administration once daily requires specific pharmaceutical formulations releasing the active compound (I) taking into account its biopharmaceutical characteristics, such that on the one hand the active compound (I) is present in an amount sufficient to have a pharmaceutical effect and that on the other hand the active compound (I) is released in a manner such that its challenging properties with respect to solubility, food effect and absorption are overcome.

`O=C(NC[C@H]1CN(c2ccc(N3CCOCC3=O)cc2)C(=O)O1)c1ccc(Cl)s1` [active compound (I), 5-chloro-N-({(5S)-2-oxo-3-[4-(3-oxo-4-morpholinyl)phenyl]-1,3-oxazolidin-5-yl}methyl)-2-thiophenecarboxamide]: the solubility (as a rule, how much of the substance goes into solution per volume) was around 7 µg/mL.
